PMC9030223, “MBP-11901 Inhibits Tumor Growth of Hepatocellular Carcinoma through Multitargeted Inhibition of Receptor Tyrosine Kinases” (Cancers, 2022)
“And” between values parts separate entries of the source, which are not always exact repeats. Equal values may be shown once.

Key:
[1] = test system: MCF10a breast epithelial cells; experiment: CCK-8 cell proliferation/cytotoxicity assay; assay type: cell-based; conditions: Homo sapiens, MCF-10A; MCF10a normal cells, 24 h
Description: (§1) Cell proliferation was detected using the Cell Counting Kit-8 (CCK-8, Cat. CK04-13; Dojindo Laboratories, Kumamoto, Japan) according to the manufacturer’s instruction. To evaluate cytotoxicity, cells were seeded in a 96-well plate (FHC, 1 × 10^4 cells/well; Caki-2, PLC/PFR.5, and MCF 10A, 1 × 10^4 cells/well; AML12, HepG2, Hep3B, and Huh-7 1.2 × 10^4 cells/well; HeLa, HEK-293, A549, and PC-3, 1.5 × 10^4 cells/well; HT-29, MCF-7, C6, and NE-4C, 2 × 10^4 cells/well). After attachment and stabilization of cells for 24 h, the medium was switched with fresh containing various concentrations (0, 1, 5, 10, 25, 50, and 100 μM) of MBP-11901, and cells were incubated for 22 h. Next, CCK-8 solution was added to each well, and cells were incubated for another 2 h. Absorbance was then measured at 450 nm using a microplate reader (SpectraMax i3, Molecular Devices, San Jose, CA, USA). The IC50 and log IC50 values were calculated using GraphPad Prism (version 5.02; GraphPad PRISM software Inc. San Diego, CA, USA). All experiments were independently performed 3 times. The graph of log IC50 values represents average values.

Huh-7 = experiment: CCK-8 cell proliferation/cytotoxicity assay; assay type: cell-based; conditions: Homo sapiens; Huh-7, 24 h treatment
Description: as §1

MCF-7 = experiment: CCK-8 cell proliferation/cytotoxicity assay; assay type: cell-based; conditions: Homo sapiens, MCF7; MCF-7, 24 h
Description: as §1

HEK-293 = experiment: CCK-8 cell proliferation/cytotoxicity assay; assay type: cell-based; conditions: Homo sapiens, HEK293; HEK-293 normal cells, 24 h
Description: as §1

PLC/PRF5 = experiment: CCK-8 cell proliferation/cytotoxicity assay; assay type: cell-based; conditions: Homo sapiens, PLC-PRF-5; PLC/PRF5, 24 h treatment
Description: as §1

NE-4C = experiment: CCK-8 cell proliferation/cytotoxicity assay; assay type: cell-based; conditions: Mus musculus; NE-4C normal cells, 24 h
Description: as §1

Hep3B = experiment: CCK-8 cell proliferation/cytotoxicity assay; assay type: cell-based; conditions: Homo sapiens, 24 h treatment
Description: as §1

Caki-2 = experiment: CCK-8 cell proliferation/cytotoxicity assay; assay type: cell-based; conditions: Homo sapiens, CAKI-2, 24 h
Description: as §1

HepG2 xenograft tumor = experiment: HepG2 subcutaneous xenograft, dose study (19 d); conditions: for Toxic deaths/total: 19 d; for Body weight loss rate (%) / Tumor growth inhibition rate (%): day 19; for tumor weight per mouse: after 19 d, vehicle control 0.31 ± 0.089 g; for average tumor volume: end of 9 administrations, start 200 mm^3, saline approx. 1000 mm^3
[2] = test system: HepG2-Luc orthotopic liver tumor; experiment: Orthotopic HCC mouse model (HepG2-Luc bioluminescence); assay type: in vivo; conditions: 82 mg/kg oral once every other day
Description: The orthotopic HCC mouse model was established by placing a small piece of tumor-derived HepG2-Luc cells. Mice were randomly distributed into 3 groups upon bioluminescence signal reaching 10^7. The first group served as the saline control. The second and third groups were orally administered MBP-11901 (82 mg/kg) and Nexavar® (164 mg/kg) once every other day for 4 weeks. Tumor progression/regression was recorded once weekly by quantifying the bioluminescence signals. Experimental animals were sacrificed by CO2 inhalation.

HepG2 cells = experiment: Transwell migration and invasion assay; assay type: cell-based, human; conditions: HepG2, dose-dependent
Description: For the migration assay, HepG2 cells were seeded into the upper Transwell chamber at a density of 2 × 10^4 cells and incubated for 24 h. For the invasion assay, 100 μL of Matrigel: serum-free media (1:4) mixture was placed on the filter membrane in the upper chamber and incubated (37 °C, 4 h) to seed cells. Cells were exposed to MBP-11901 and sorafenib for 2 h. Then, the medium in the upper chamber was changed to serum-free medium, whereas the medium in the lower chamber was changed to a medium containing 10% FBS. The medium was replaced once every 2–3 d. Following 6 d incubation, the upper surfaces of the filters were scraped 5 times with cotton swabs to remove nonmigrated cells, whereas cells crossing the membrane into the lower chamber were stained with 1% (w/v) crystal violet for 30 min. Crystal violet was removed and cells were washed with tap water. For the migration assay, after drying at 25 °C, 10% acetic acid solution was added to cells, and left to react in a shaker for 30 min. Absorbance was measured at 590 nm using a microplate reader (SpectraMax i3, Molecular Devices). For the invasion assay, the number of migrated cells was counted.

[3] = test system: cleaved PARP and active caspase-3 in HepG2 cells; experiment: Western blot of apoptosis markers; assay type: cell-based, human; conditions: HepG2, time- and dose-dependent
Description: HepG2 cells were seeded in a 60 mm^2 culture dish at a density of 1.5 × 10^6 cells/dish and incubated for 24 h. Cells were treated with MBP-11901 for 24 h. Cells were harvested and protein extraction and Western blotting methods were performed as previously described. Membranes were incubated using the following diluted primary antibodies; PARP (1:1000 dilution), caspase-3 (1:1000 dilution), cleaved caspase-3 (1:1000 dilution), pFLT3 (1:500 dilution), Ras (1:1000 dilution), pc-Raf (1:1000 dilution), pMEK1/2 (1:1000 dilution), pERK1/2 (1:1000 dilution), pAKT (1:1000 dilution), pmTOR (1:1000 dilution), pVEGFR2 (1:1000 dilution), pPDGFR β (1:2000 dilution), and β-actin (1:1000 dilution) in Tris-HCl-based buffer containing 0.2% Tween-20 (T1027, Biosesang, Seongnam, Korea) (TBS-T; pH 7.5). Membranes were then incubated with horseradish-conjugated secondary antibodies (1:5000, Cell Signaling Technologies, Beverly, MA, USA) for 1 h at 25 °C. After washing with TBS-T, immunoreactive bands were visualized using the chemiluminescence western imaging system (Supernova-Q1800TM, Centronics, Daejeon, Korea). Band intensities were measured using ImageJ (Version 1.50i; US National Institutes of Health, Bethesda, MD, USA) and were normalized to β-actin.

[4] = tumors, compared with vehicle control

Molecule `NCC(N)C(=O)Nc1ccc(-c2nc3ccccc3s2)cc1` (centres unmarked) [MBP-11901] has an IC50 [1] of 65.1 ± 1.88 µM, an IC50 (Huh-7) of 29.4 ± 1.13 µM and an IC50 (MCF-7) of 65.9 ± 12.3 µM. It also gave an IC50 (HEK-293) of 68.2 ± 2.79 µM, an IC50 (PLC/PRF5) of 18.6 ± 0.81 µM and an IC50 (NE-4C) of 36.8 ± 3.66 µM. For the same molecule, the IC50 (Hep3B) was 16.8 ± 0.88 µM, the IC50 (Caki-2) was 75.7 ± 3.44 µM and the Toxic deaths/total (HepG2 xenograft tumor; 40 mg/kg oral once every 2 d) was 0/8. The “Body weight loss rate (%)” value (HepG2 xenograft tumor; 40 mg/kg oral once every 2 d) was 2.00 ± 2.47 %, the “Tumor growth inhibition rate (%)” value (HepG2 xenograft tumor; 40 mg/kg oral once every 2 d) was 61.41 ± 0.45% and the “tumor weight per mouse” value (HepG2 xenograft tumor; 40 mg/kg) was 0.082 ± 0.063 g. The average tumor volume (HepG2 xenograft tumor; 40 mg/kg) was “approximately 350 mm^3”, the “animals in which the tumor completely disappeared” value (HepG2 xenograft tumor; 60 mg/kg group) was 3 out of 8 and the Toxic deaths/total (HepG2 xenograft tumor; 60 mg/kg oral once every 2 d) was 0/8. The “Body weight loss rate (%)” value (HepG2 xenograft tumor; 60 mg/kg oral once every 2 d) was 1.50 ± 1.97 %, the “Tumor growth inhibition rate (%)” value (HepG2 xenograft tumor; 60 mg/kg oral once every 2 d) was 85.26 ± 0.36% and the “tumor weight per mouse” value (HepG2 xenograft tumor; 60 mg/kg) was 0.025 ± 0.035 g. The average tumor volume (HepG2 xenograft tumor; 60 mg/kg) was about 150 mm^3, the “animals in which the tumor completely disappeared” value (HepG2 xenograft tumor; 82 mg/kg group) was 4 out of 8 and the Toxic deaths/total (HepG2 xenograft tumor; 82 mg/kg oral once every 2 d) was 0/8. For the same molecule, the “Body weight loss rate (%)” value (HepG2 xenograft tumor; 82 mg/kg oral once every 2 d) was 1.78 ± 4.40 %, the “Tumor growth inhibition rate (%)” value (HepG2 xenograft tumor; 82 mg/kg oral once every 2 d) was 92.54 ± 0.02% and 92.54 ± 0.0 % and the “tumor weight per mouse” value (HepG2 xenograft tumor; 82 mg/kg) was 0.011 ± 0.009 g. For the same molecule, the average tumor volume (HepG2 xenograft tumor; 82 mg/kg) was about 70 mm^3, the “apoptosis in tumors (cleaved caspase-3)” value (HepG2 xenograft tumor; [4]) was “high level of apoptosis” and the “proliferation of tumor cells (Ki-67)” value (HepG2 xenograft tumor; [4]) was “significant reduction”. For the same molecule, the “level of GPT” value ([2]; 4 weeks) was “within the normal range”, the “Ratio of average luminescence intensity to that of the saline group before administration” value (“Ratio of average luminescence intensity” for short) ([2]; 0 w (immediately before administration)) was 0.77 ± 0.8 fold and the “Ratio of average luminescence intensity” value ([2]; 1 w) was 2.24 ± 2.9 fold. The “Ratio of average luminescence intensity” value ([2]; 2 w) was 0.83 ± 1.8 fold, the “Ratio of average luminescence intensity” value ([2]; 3 w) was 0.03 ± 0.1 fold and the “Ratio of average luminescence intensity” value ([2]; 4 w) was 0.02 ± 0.0 fold. The “migration and invasion of tumor cells” value (HepG2 cells) was “highly inhibited” and the “levels of cleaved PARP and active caspase-3” value [3] was “high levels”.
